{"source": "patent US4956381A", "about": "“Treating tissue calcium depletion or degenerative processes in bone or cartilage” (Sandoz Ltd., priority 1987, dated 1990)", "key": {"[1]": {"tested_on": "mouse peritoneal macrophages", "assay": "Mouse macrophage monokine inhibition (chondrocyte bioassay)", "assay_type": "cell-based", "conditions": "24 h, substantially pure Z-isomeric form, 3-5 separate experiments in triplicate, read-out: ED50 (suppression of monokine release)", "procedure": "Purified IL-1, [Schnyder et al., J. Immunol. […] [c.f. […] J. Rheumatol.\nCulture media are diluted 1:1 (v:v) with fresh medium and added to confluent rabbit chondrocytes. […] activity in the chondrocyte culture medium is monitored after a further two days."}, "human monocytes": {"tested_on": "human monocytes", "assay": "LAF-test (thymocyte proliferation), monokine production by human monocytes", "assay_type": "cell-based", "conditions": "Monocyte, substantially pure Z-isomeric form, 2 separate experiments, 3 parallel determinations, read-out: ED50 (inhibition of monokine production)", "procedure": "(§1) Mononuclear cells are obtained from the blood of healthy volunteers via centrifugation and cultivated on tissue culture dishes with test compound at varying concentrations [Schnyder et al., J. Immunol., 138, 496-503 (1987)]. The non-adherent lymphocytes are removed after 4 hours by washing several times. Fresh medium, test compound and lipopolysaccharide (LPS) as stimulant are added and the monocytes incubated for further 19 hours. The pooled culture media are diluted 1:10 (v:v) with fresh medium and added to confluent rabbit chondrocytes. MP activity in the chondrocyte culture medium is assayed after a further 2 days. COMPOUNDS OF THE INVENTION, in particular compounds D2 and K1, are active in suppressing monokine release in the above test method at concentrations of the order of from about 30 to about 100 μM. Thus determined ED50 S for the compounds D2 and K1 each in substantially pure Z-isomeric form in a series of 3 or 7 separate experiments each with 3 parallel determinations are, for both compounds, of the order of 60 to 100 μM.\nLymphocyte proliferation is the standard test for monokine activity. […] The cells are incubated for 2 days in 96-well culture plates and the proliferation rate determined using a ^3 H-thymidine pulse (1 μC/well) during the final 6 hours. The incorporated radioactivity is collected on filter paper and counted. […]"}, "IL-1β": {"tested_on": "IL-1β", "assay": "RIA-Kit IL-1 quantification in human monocyte cultures", "assay_type": "cell-based", "procedure": "as §1\nThe procedures of example 1.1.b. above are repeated and IL-1 concentrations in recovered, undiluted culture medium determined employing a CISTRON IL-1 radioimmuno assay kit (the CISTRON kit is obtainable from Cistron, 10, Bloomfield Avenue, P.O. Box 2004, Pine Brook, NJ 07 058 USA. It is IL-1β specific and recognises both intra- and extra-cellular material)."}, "lysozyme": {"tested_on": "lysozyme", "assay": "Secretion of lysozyme from human monocytes", "assay_type": "cell-based", "conditions": "human monocyte culture media", "procedure": "Culture media from human monocytes are prepared as disclosed above. Lysozyme and lactate dehydrogenase (LDH) are monitored kinetically by using a Twinreader (Flow Laboratories AG) linked to a personal computer. Samples (50 μl) for LOH are mixed with 200 μl substrate mixture, containing in final concentrations 50 mM phosphate buffer, pH 7.5, 0.8 mM sodium pyruvate, 0.24 mM NADH and 0.04 % bovine albumin and the changes in absorbance at 340 nm are measured 11 times at 1-min intervals. The computer calculates the initial velocities which are used to determine the units. Samples (50 μl) for lysozyme are mixed with 100 μl suspension of 1.2 mg/ml M. Lysodeikticus in 67 mM phosphate buffer pH 6.2 and the changes in turbidity at 492 nm monitored 11 times at 4-min intervals. With every assay series, a calibration curve is made with crystalline hen egg-white lysozyme [J. Schnyder et.al., J. Exp. Med. 148, 435 (1978)]. No significant leakage of LDH from control and treated cell cultures is observed."}, "periodontal disease": {"tested_on": "periodontal disease", "assay": "Clinical trial III: calcium resorption - periodontal disease", "assay_type": "in vivo, human", "conditions": "ca. 400 to 1200 mg p.o./day or injection ca. 0.5 or 1.0 to 5.0 mg per gum pouch; after ca. 2 to 3 weeks", "procedure": "COMPOUND OF THE INVENTION, e.g. compound D2 or K1 in substantially pure Z-isomeric form, is administered at dosages of from ca. 400 to 1200 mg/p.o./day administered once or in divided dosages up to 4x daily, or by injection into the gum at the site of disease at dosages of the order of about 0.5 or 1.0 to about 5.0 mg into each gum pouch. The subjects are examined at regular weekly or 2x weekly intervals for disease progression."}, "[2]": {"tested_on": "psoriatic arthritis or seronegative spondylarthrosis or osteoarthrosis", "assay": "Clinical trial IV: degenerative joint disease", "assay_type": "in vivo, human", "conditions": "ca. 200 to 1200 mg p.o./day, 8 weeks", "procedure": "COMPOUND OF THE INVENTION, e.g. compound D2 or K1 in substantially pure Z-isomeric form, is administered at dosages of from ca. 200 to 1200 mg/p.o./day, once or in divided dosages up to 4×daily for 8 weeks. The subjects are examined at a regular interval of 2 weeks for disease progression on parameters such as pain sensation at the joints, evaluation of the functional capacity according to Steinbrocker, hand grip strength or Richtie Index."}, "[3]": {"assay": "Acute toxicity (LD50) in mice", "conditions": "mouse, in vivo, substantially pure Z-isomeric form"}, "[4]": {"conditions": "CISTRON IL-1 radioimmuno assay, human monocytes"}}, "data": [{"smiles": "COC1=Cc2ccccc2/C(=C/C(=O)O)c2ccsc21", "note": "[Compound D2, [10-Methoxy-4H-benzo[4,5]cyclohepta[1,2-b]thiophen-4-ylidene]-acetic acid]", "values": [{"measurement": "IC50", "setting": "[1]", "result": "~100", "unit": "µM"}, {"measurement": "IC50", "setting": "human monocytes", "result": "~30", "unit": "µM"}, {"measurement": "extra-cellular IL-1 level", "setting": "IL-1β; [4]", "result": "extra-cellular content is reduced significantly"}, {"measurement": "intracellular IL-1 level", "setting": "IL-1β; [4]", "result": "remain substantially unaffected"}, {"measurement": "IC50", "setting": "IL-1β; Homo sapiens, Monocyte, 19 h, substantially pure Z-isomeric form, 2-8 experiments, 3 parallel determinations, read-out: ED50 for extra-cellular IL-1 level suppression", "result": "~40", "unit": "µM"}, {"measurement": "release of lysozyme", "setting": "lysozyme", "result": "reduces the release of lysozyme only marginally and not under the level of unstimulated controls"}, {"measurement": "condition (periodontal disease)", "setting": "periodontal disease", "result": "marked improvement in condition after ca. 2 to 3 weeks continuous therapy"}, {"measurement": "condition (degenerative joint disease)", "setting": "[2]", "result": "improvement in condition after the 8 week treatment period"}, {"measurement": "LD50 at 168 h", "setting": "[3]; iv, 7 days", "result": 163, "unit": "mg/kg"}, {"measurement": "LD50 at 336 h", "setting": "[3]; po, 14 days", "result": 1620, "unit": "mg/kg"}]}]}
